These are literature values, as cited in patent US20050123615A1, “Controlled release dosage forms of azithromycin” (Pfizer Inc, priority 2003, published 2005).

The conditions of this series: 3,995 human patients, all dose levels combined, oral.

Consider `CC[C@H]1OC(=O)[C@H](C)[C@@H](O[C@H]2C[C@@](C)(OC)[C@@H](O)[C@H](C)O2)[C@H](C)[C@@H](O[C@@H]2O[C@H](C)C[C@H](N(C)C)[C@H]2O)[C@](C)(O)C[C@@H](C)CN(C)[C@H](C)[C@@H](O)[C@]1(C)O` [azithromycin, 9a-aza-9a-methyl-9-deoxo-9a-homoerythromycin A], for which the “patients reporting GI side effects” value is reported as 9.6%, the “patients reporting abdominal pain” value is given as 2.5%, the patients reporting diarrhea was 3.6% and the patients reporting nausea is given as 2.6%.
